Earlier results as cited in patent US7029652B2, “Method of treating tumors” (The Regents of the University of California, priority 1998, dated 2006).

System: HBT 3477 tumors
Conditions: 250 μg provided 1 hour before RIT; cited from earlier work

cyclo-(Arg-Gly-Asp-D-Phe-1-aminocyclohexane carboxylic acid) [EMD 270179]
increased uptake of RIT by HBT 3477 tumors: up to 50%
